Measured values taken from paper PMC10145360, “Antiplatelet Aggregation Properties of Cirsilineol: A Novel Inhibitor of Blood Coagulation Factor Xa” (Pharmaceuticals, 2023).
Marks after values point to notes of the source that are not given here.

Legend:
[1] = test system: human umbilical vein endothelial cells (HUVECs); assay: NO and ET-1 production, ELISA; type: cell-based; details: ADP or U46619 treated
[2] = test system: platelet-poor plasma (PPP); assay: Prothrombin time (PT) after administration to mice; type: in vivo, mouse; details: administered to mice; data not shown
Description: (§1) First, the potential cytotoxicity of […] on HUVECs was assessed using the 3-(4,5-dimethylthiazol-2-yl)-2,5-diphenyltetrazolium bromide (MTT) assay. […] The activated partial thromboplastin time (aPTT) and prothrombin time (PT), two coagulation parameters altered by CSL in vitro, were assessed first. We used the direct FXa inhibitor rivaroxaban as a positive control for our experiments. […] In the aPTT experiments, rivaroxaban at 8.38 μM and CSL at 7.23 μM, respectively, doubled the clotting time. Each mouse group (n = 5) received intravenous injections of CSL for 4 consecutive days to validate the in vitro results in an ex vivo experiment. […] In the ex vivo aPTT assays, treatment with CSL at 0.25 mg/kg and rivaroxaban at 0.29 mg/kg, respectively, doubled the clotting time. The average blood volume was determined to be 2 mL based on an estimated circulating blood volume for mice of 72 mL/kg and an average weight of 27 g for each animal used in this investigation. As a result, the estimated concentration of CSL in the peripheral blood after each injection ([…]) was 2.5, 5, 10, or 20 μM, respectively.
Plasma was taken by centrifuging blood (2000× g for 10 min) at room temperature following dimethyl sulfoxide (DMSO) or CSL administration for 1 h to assess PT and aPTT using a thrombotimer (Behnk Elektronik, Norderstedt, Germany). […] Next, the clotting time was measured.

[3] = test system: HUVECs; assay: MTT cell viability assay; type: cell-based, human; details: CSL 5–50 μM
Description: as §1
A 3-(4,5-dimethylthiazol-2-yl)-2,5-diphenyltetrazoliumbromide (MTT) assay was used to measure cell viability. […] The amount of formazan salt formed was measured spectrophotometrically at 540 nm.

[4] = test system: platelet-poor plasma (PPP); assay: In vitro aPTT clotting time in platelet-poor plasma; parameters: species or system human
Description: Figure 2 Effects of CSL on clotting time. (A) Platelet-poor plasma (PPP) was incubated with the indicated concentrations of CSL or rivaroxaban (Riva) for 15 min. (B) One hour after administering DMSO, CSL, or Riva, blood was collected from the mice, and PPP was obtained. Then, in vitro aPTT (A) or ex vivo aPTT was measured, as described in the Methods sections. Data are shown as mean values ± SD of five independent experiments. * p < 0.05 vs. D. D = 0.2% DMSO, used as the vehicle control.
Ten fasting healthy volunteers (aged 24–28; six women and four men) who were free of allergies, cardiovascular problems, carbohydrate, or lipid metabolic abnormalities and had not taken any morning medication had their blood samples taken. None of our subjects used addictive drugs or antioxidant food supplements, and their diets were well balanced. The plasma from the blood samples was immediately spun down (1300× g for 15 min) to separate it from sodium citrate (10.9 mM) and pooled for the following investigations. Next, human blood samples were spun down at room temperature to rapidly separate the PRP. The PRP concentration was adjusted to 1 × 10^9 platelets/mL using a hemocytometer. After being rinsed once in HEPES buffer containing 1 mM CaCl2, the PRP pellet was maintained at room temperature for an additional 30 min. Then, 10 mL of the platelet samples were utilized to measure each clotting time point. The IRB of Kyungpook National University Hospital (Daegu, Republic of Korea) approved this study protocol (KNUH 2012-01-010).
Plasma was taken by centrifuging blood (2000× g for 10 min) at room temperature following dimethyl sulfoxide (DMSO) or CSL administration for 1 h to assess PT and aPTT using a thrombotimer (Behnk Elektronik, Norderstedt, Germany). Micronized silica was utilized as an activator for the aPTT test. Briefly, 100 μL of platelet-poor plasma (PPP) and 100 μL of aPTT assay reagent were combined for 1 min at 37 °C, 100 µL of CaCl2 (20 mM) was added, and the clotting times were noted. […] Next, the clotting time was measured.

[5] = test system: collagen and epinephrine-induced pulmonary thrombosis; assay: Acute pulmonary thrombosis induced by collagen and epinephrine; type: in vivo, mouse; details: for Mortality %: then collagen + epinephrine, mice; for Scored thrombus formation (Thrombi), lung: graded as thrombi per 25 mm^2 lung field
Description: Mice were separated into several groups after being fasted overnight (10 animals each). CSL was dissolved in DMSO and given intravenously to each mouse. After 1 h, the animals received an injection of collagen and epinephrine mixture (500 μg/kg each) to induce acute thrombosis. Each mouse was closely observed for 15 min to see if it had recovered from the acute thrombosis challenge, had been paralyzed, or had passed away. H&E-stained lung tissue slices from five mice were randomly selected for the histologic investigation to determine the extent of pulmonary thrombus development. The number of arteries greater than 20 μm in diameter with any detectable thrombus was counted in each of the five view fields randomly selected from the left lobe in each section (one section per mouse). Twenty-five fields for each group were compared as a result. A total of 60–80 vessels in each segment were imaged using the system (Leica, Germany). The results were graded as the number of thrombi per 25 mm^2 lung field as previously described.

Structure (SMILES): COc1cc(-c2cc(=O)c3c(O)c(OC)c(OC)cc3o2)ccc1O [CSL, 4,5-dihydroxy-3,6,7-trimethoxyflavone]
- NO secretion [1]: returned the decreased NO secretion caused by ADP or U46619 to their baseline levels
- production of ET-1 [1]: returned the increased production of ET-1
- PT [2]: did not change
- cell viability (MTT) [3]: no change in cell viability
- concentration that doubled the clotting time (in vitro aPTT) ([4]; PPP incubated 15 min): 7.23 µM
- aPTT in vitro ([4]; doses between 5 and 20 M): considerably slowed the aPTT
- Mortality % ([5]; 0.13 mg/kg intravenous): 85 ^# %
- Scored thrombus formation (Thrombi), lung ([5]; 0.13 mg/kg intravenous): 3.5 ± 0.1
- Mortality % ([5]; 0.26 mg/kg intravenous): 80 ^# %
- Scored thrombus formation (Thrombi), lung ([5]; 0.26 mg/kg intravenous): 2.5 ± 0.1
- Mortality % ([5]; 0.51 mg/kg intravenous): 60 ^# %
- Scored thrombus formation (Thrombi), lung ([5]; 0.51 mg/kg intravenous): 1.8 ± 0.2
